According to patent US9108950B2, “1-pyrazolyl-3-(4-((2-anilinopyrimidin-4-yl)oxy)napththalen-1-yl) ureas as p38 MAP kinase inhibitors” (Respivert Ltd., priority 2011, dated 2015):

Assays:
Format in all cases: physicochemical
Dynamic vapour sorption = settings: form B micronized
Method: Plots were obtained using a Surface Measurement Systems dynamic vapor sorption model DVS-1 using about 10 mg of the sample. The weight change was recorded with respect to atmospheric humidity at 25° C. and was determined using the following parameters: drying: 60 min under dry nitrogen; equilibrium: 60 min/step; data interval: 0.05% or 2.0 min. The relative humidity [RH %] measurement points were as follows:
The DVS isotherm plot for the micronized reference sample is illustrated in FIG. 4 and the DVS change in mass plot for the micronized reference sample is illustrated in FIG. 5. […] The product adsorbed up to 0.4% moisture depending on the atmospheric humidity.

[1] = Chemical stability by HPLC; settings: form B micronized
Method: Analyses were carried out on a Waters Xbridge C18 column (3.0×150 mm; 3.5 μm) using the following operating conditions: column temperature: 40° C.; sample temperature: 5° C.; flow rate: 0.45 mL/min; injection volume: 7 μL; UV detection at 260 nm; mobile phase composition comprised of Phase A: 10 mM ammonium acetate+0.1%, v/v trifluoroacetic acid in water and Phase B: acetonitrile, using the gradient defined by the parameters below (Table 2).
The reference and comparative samples were then analyzed by HPLC using the method described in General Procedures and by visual inspection.

[2] = Physical stability on storage (TGA, XRPD, IR, DSC, appearance); set-up: key to XRD / IR: Cryst.: crystalline; ~Ref: pattern identical with reference sample; settings: for Appearance / IR / XRD / DSC max / TGA <100° C. weight loss / TGA <180° C. weight loss: form B micronized
Method: Patterns were obtained on a PANalytical (Philips) X'PertPRO MPD diffractometer equipped with a Cu LFF X-ray tube (45 kV; 40 mA; Bragg-Brentano; spinner stage) and were acquired using Cu Kα radiation under the following measurement conditions: scan mode: continuous; scan range: 3 to 50° 2θ; step size: 0.02°/step; counting time: 30 sec/step; spinner revolution time: 1 sec; incident beam path: program. divergence slit: 15 mm; Soller slit: 0.04 rad; beam mask: 15 mm; anti scatter slit: 1°; beam knife: +; Diffracted beam path: long anti scatter shield: +; Soller slit: 0.04 rad; Ni filter: +; detector: X'Celerator. Samples were prepared by spreading on a zero background sample holder.
Micro attenuated total reflectance (microATR) was used and the sample was analyzed using a suitable microATR accessory and the following measurement conditions: apparatus: Thermo Nexus 670 FTIR spectrometer; number of scans: 32; resolution: 1 cm^−1; wavelength range: 4000 to 400 cm^−1; detector: DTGS with KBr windows; beamsplitter: Ge on KBr; micro ATR accessory: Harrick Split Pea with Si crystal.
Data were collected on a TA-Instruments Q1000 MTDSC equipped with RCS cooling unit. Typically 3 mg of each compound, in a standard aluminium TA-Instrument sample pan, was heated at 10° C./min from 25 C to 300° C. A nitrogen purge at 50 mL/min was maintained over the sample.
Data were collected on a TA-Instruments Q500 thermogravimeter Typically 10 mg of each sample was transferred into a pre-weighed aluminium pan and was heated at 20° C./min from ambient temperature to 300° C. or […] unless otherwise stated.
Thermal analysis of Compound (I) as the anhydrous free base in crystalline polymorphic form B (micronized) was undertaken using TGA, DVS, XRPD analysis, IR spectroscopy and DSC as described in General Procedures. Where appropriate, a sample at ambient temperature and relative humidity (reference sample/“0 days”) was compared with samples stored at various temperatures and relative humidities (comparative samples).
The reference sample (t=0) and the comparative samples that were exposed prior to analysis to different storage conditions, were heated at a rate of 20° C./min from RT to 300° C. The TGA curve of the reference sample (t=0) is illustrated in FIG. 3 and the results for all samples are summarised below (Table 8). […] The weight loss that occurred above 180° C. was due to evaporation and decomposition of the product. Comparing this weight loss profile with those of the comparative samples in Table 8, no significant differences were observed.
The XPRD diffraction pattern of the reference sample (t=0) is illustrated in FIG. 2 and the IR trace is illustrated in FIG. 6. The diffraction pattern and IR trace were compared with those of the comparative samples (exposed to different storage conditions) and the results are summarised in Table 8. The diffraction patterns and IR traces were identical for all samples.
The reference sample (t=0) and comparative samples, previously exposed to different storage conditions, were heated at a rate of 10° C./min from 25° C. to 300° C. The DSC curve of the reference sample is illustrated in FIG. 7 and the results for all samples are summarised below (Table 8). From FIG. 7, it is evident that the reference sample melted with decomposition at 214.0° C.

Question: For `Cc1ccc(-n2nc(C(C)(C)C)cc2NC(=O)Nc2ccc(Oc3ccnc(Nc4ccccc4)n3)c3ccccc23)cc1` [Compound (I), 1-(3-(tert-Butyl)-1-(p-tolyl)-1H-pyrazol-5-yl)-3-(4-((2-(phenylamino)pyrimidin-4-yl)oxy)naphthalen-1-yl)urea], which “hygroscopic behavior (DVS)” value (Dynamic vapour sorption) is on record?
Answer: Its value is “no hygroscopic behavior”.

Question: What about the “moisture adsorbed (DVS)” value (Dynamic vapour sorption; depending on atmospheric humidity, 25° C.) of the same compound?
Answer: The value was “up to 0.4%”.

Question: What about the “chemical stability” value [1] of the same compound?
Answer: The value was “chemically stable”.

Question: And the “sensitivity to light” value [1]?
Answer: Its value is “some sensitivity to light was observed”.

Question: And the Appearance ([1]; 40° C./75% RH, 1 week)?
Answer: Its Appearance is “off-white”.

Question: What about the “Sum of impurities by HPLC” value ([1]; 40° C./75% RH, 1 week) of the same compound?
Answer: The value was 0.66%.

Question: What about the Appearance ([1]; 40° C./75% RH, 4 weeks) of the same compound?
Answer: Its Appearance is “off-white”.

Question: What about the “Sum of impurities by HPLC” value ([1]; 40° C./75% RH, 4 weeks) of the same compound?
Answer: The value was 0.68%.

Question: What about the Appearance ([1]; 50° C., 1 week) of the same compound?
Answer: The Appearance was “off-white”.

Question: And the “Sum of impurities by HPLC” value ([1]; 50° C., 1 week)?
Answer: Its value is 0.69%.

Question: And the Appearance ([1]; 50° C., 4 weeks)?
Answer: The Appearance was “off-white”.

Question: And the “Sum of impurities by HPLC” value ([1]; 50° C., 4 weeks)?
Answer: Its value is 0.66%.

Question: And the Appearance ([1]; 70° C./75% RH, 1 week)?
Answer: The Appearance was “off-white”.

Question: And the “Sum of impurities by HPLC” value ([1]; 70° C./75% RH, 1 week)?
Answer: The value was 0.73%.

Question: What about the Appearance ([1]; 80° C., 1 week) of the same compound?
Answer: Its Appearance is “off-white”.

Question: And the “Sum of impurities by HPLC” value ([1]; 80° C., 1 week)?
Answer: Its value is 0.73%.

Question: What about the Appearance ([1]; 0.3 day, ICH light) of the same compound?
Answer: The Appearance was “off-white”.

Question: And the “Sum of impurities by HPLC” value ([1]; 0.3 day, ICH light (700 W/m^2))?
Answer: Its value is 1.44%.

Question: And the Appearance ([1]; RT/56% RH, 4 weeks)?
Answer: Its Appearance is “off-white”.

Question: And the “Sum of impurities by HPLC” value ([1]; RT/56% RH, 4 weeks)?
Answer: The value was 0.67%.

Question: And the Appearance ([1]; RT/75% RH, 4 weeks)?
Answer: Its Appearance is “off-white”.

Question: And the “Sum of impurities by HPLC” value ([1]; RT/75% RH, 4 weeks)?
Answer: Its value is 0.67%.

Question: And the Appearance ([1]; RT/<5% RH, 4 weeks)?
Answer: The Appearance was “off-white”.

Question: What about the “Sum of impurities by HPLC” value ([1]; RT/<5% RH, 4 weeks) of the same compound?
Answer: Its value is 0.67%.

Question: What about the Appearance ([1]; T = zero) of the same compound?
Answer: Its Appearance is “off-white”.

Question: What about the “Sum of impurities by HPLC” value ([1]; T = zero) of the same compound?
Answer: The value was 0.66%.

Question: And the “physical stability” value ([2]; form B)?
Answer: The value was “good physical stability”.

Question: What about the Appearance ([2]; 1 week/70° C./75% RH) of the same compound?
Answer: The Appearance was “off-white”.

Question: What about the IR ([2]; 1 week/70° C./75% RH) of the same compound?
Answer: Its IR is “~Ref”.

Question: What about the XRD ([2]; 1 week/70° C./75% RH) of the same compound?
Answer: The XRD was “~Ref”.

Question: What about the Appearance ([2]; 1 week/80° C.) of the same compound?
Answer: The Appearance was “off-white”.

Question: What about the IR ([2]; 1 week/80° C.) of the same compound?
Answer: Its IR is “~Ref”.

Question: And the XRD ([2]; 1 week/80° C.)?
Answer: Its XRD is “~Ref”.

Question: What about the Appearance ([2]; 4 weeks/40° C./75% RH) of the same compound?
Answer: The Appearance was “off-white”.

Question: And the DSC max ([2]; 4 weeks/40° C./75% RH)?
Answer: The DSC max was 214 °C.

Question: And the IR ([2]; 4 weeks/40° C./75% RH)?
Answer: The IR was “~Ref”.

Question: And the “TGA <100° C. weight loss” value ([2]; 4 weeks/40° C./75% RH)?
Answer: Its value is 0.8%.

Question: What about the “TGA <180° C. weight loss” value ([2]; 4 weeks/40° C./75% RH) of the same compound?
Answer: Its value is 0.3%.

Question: And the XRD ([2]; 4 weeks/40° C./75% RH)?
Answer: Its XRD is “~Ref”.

Question: And the Appearance ([2]; 4 weeks/50° C.)?
Answer: The Appearance was “off-white”.

Question: What about the DSC max ([2]; 4 weeks/50° C.) of the same compound?
Answer: The DSC max was 214 °C.

Question: What about the IR ([2]; 4 weeks/50° C.) of the same compound?
Answer: Its IR is “~Ref”.

Question: And the “TGA <100° C. weight loss” value ([2]; 4 weeks/50° C.)?
Answer: The value was 1.3%.

Question: What about the “TGA <180° C. weight loss” value ([2]; 4 weeks/50° C.) of the same compound?
Answer: Its value is 0.5%.

Question: And the XRD ([2]; 4 weeks/50° C.)?
Answer: The XRD was “~Ref”.

Question: What about the Appearance ([2]; 4 weeks/RT/56% RH) of the same compound?
Answer: The Appearance was “off-white”.

Question: And the DSC max ([2]; 4 weeks/RT/56% RH)?
Answer: Its DSC max is 214 °C.

Question: And the IR ([2]; 4 weeks/RT/56% RH)?
Answer: The IR was “~Ref”.

Question: What about the “TGA <100° C. weight loss” value ([2]; 4 weeks/RT/56% RH) of the same compound?
Answer: The value was 0.5%.

Question: What about the “TGA <180° C. weight loss” value ([2]; 4 weeks/RT/56% RH) of the same compound?
Answer: The value was 0.4%.

Question: And the XRD ([2]; 4 weeks/RT/56% RH)?
Answer: Its XRD is “~Ref”.

Question: And the Appearance ([2]; 4 weeks/RT/75% RH)?
Answer: The Appearance was “off-white”.

Question: And the DSC max ([2]; 4 weeks/RT/75% RH)?
Answer: Its DSC max is 214 °C.

Question: What about the IR ([2]; 4 weeks/RT/75% RH) of the same compound?
Answer: The IR was “~Ref”.

Question: What about the “TGA <100° C. weight loss” value ([2]; 4 weeks/RT/75% RH) of the same compound?
Answer: The value was 0.9%.

Question: And the “TGA <180° C. weight loss” value ([2]; 4 weeks/RT/75% RH)?
Answer: Its value is 0.5%.

Question: What about the XRD ([2]; 4 weeks/RT/75% RH) of the same compound?
Answer: Its XRD is “~Ref”.

Question: What about the Appearance ([2]; 4 weeks/RT/<5% RH) of the same compound?
Answer: Its Appearance is “off-white”.

Question: And the DSC max ([2]; 4 weeks/RT/<5% RH)?
Answer: The DSC max was 214 °C.

Question: And the IR ([2]; 4 weeks/RT/<5% RH)?
Answer: The IR was “~Ref”.

Question: And the “TGA <100° C. weight loss” value ([2]; 4 weeks/RT/<5% RH)?
Answer: Its value is 0.8%.

Question: And the “TGA <180° C. weight loss” value ([2]; 4 weeks/RT/<5% RH)?
Answer: Its value is 0.5%.

Question: What about the XRD ([2]; 4 weeks/RT/<5% RH) of the same compound?
Answer: The XRD was “~Ref”.

Question: And the Appearance ([2]; T = zero)?
Answer: The Appearance was “off-white”.

Question: What about the DSC max ([2]; T = zero) of the same compound?
Answer: Its DSC max is 214 °C.

Question: What about the IR ([2]; T = zero) of the same compound?
Answer: The IR was “Cryst”.

Question: What about the “TGA <180° C. weight loss” value ([2]; T = zero) of the same compound?
Answer: The value was 0.6%.

Question: And the XRD ([2]; T = zero)?
Answer: Its XRD is “Cryst”.
